According to JP2008208074A, “ピラジン誘導体を有効成分とする抗がん剤” (Toray Industries Inc, priority 2007, dated 2008):

Columns and labels:
[1] = system: tumour derived from mouse colon cancer cell line Colon26 [マウス結腸癌細胞株であるColon26細胞由来の腫瘍]; assay: Tumour growth suppression in mouse colon cancer model (Example 2); type: in vivo; details: sodium salt of Reference Example 72; BALB/c mice, male, Colon26 tumour s.c.; 20 mg/kg i.v. once daily day 0-3; n=7; day 3
[2] = Body weight and side effects in mouse colon cancer model (Example 2); type: in vivo; details: sodium salt of Reference Example 72, 20 mg/kg i.v. once daily day 0-3

For `O=C(O)Cc1ccn(-c2cncc(-n3ncc4ccc(NC5CCCC5)cc43)n2)c1` [参考例72, 2-(1-(6-(6-(シクロペンチルアミノ)-1H-インダゾール-1-イル)ピラジン-2-イル)-1H-ピロール-3-イル)酢酸, ナトリウム塩], the “suppression of estimated tumour volume compared with control group” value [1] was 29%, the “body weight difference between treated and control group” value ([2]; n=7, day 4, result in words) was “差は認められなかった” and the body weight ([2]; BALB/c mice with Colon26 tumour, n=7, weighed day 4, control group 22.9±0.5 g) was 22.7 ± 0.5 g. For the same compound, the side effects ([2]; mouse, individual level, concluded from body weight, result in words) was “副作用を示すことなく”.
